Results from patent US20020035061A1, “COMPOSITIONS AND METHODS FOR TREATING INFECTIONS USING CATIONIC PEPTIDES ALONE OR IN COMBINATION WITH ANTIBIOTICS” (priority 1996, published 2002).
Like-named read-outs stand apart in the source and are kept apart here.

Columns and labels:
Format in all cases: cell-based
E. coli = test system: E. coli
A. calcoaceticus = test system: A. calcoaceticus
S. marcescens = test system: S. marcescens
E. cloacae = test system: E. cloacae
S. aureus = test system: S. aureus
S. maltophilia = test system: S. maltophilia
K. pneumoniae = test system: K. pneumoniae
P. aeruginosa = test system: P. aeruginosa
E. faecalis = test system: E. faecalis
S. epidermidis = test system: S. epidermidis
[1] = test system: inherently resistant microorganisms; experiment: microbe, parasite or virus in culture
[2] = test system: vancomycin / teicoplanin resistant enterococci; experiment: microbe, parasite or virus in culture; conditions: for Peptide MIC Alone: Amikacin section; for FIC: peptide + Amikacin
[3] = test system: microorganisms with acquired resistance; experiment: microbe, parasite or virus in culture; conditions: for Peptide MIC Alone: Gentamicin section; for FIC: peptide + Gentamicin
bacterial isolates = experiment: microbe, parasite or virus in culture

Sequence: ILKKNPNNPRRK [MBI 11G6ACN]
- MIC (E. coli; E. coli strain ECO005): 64 µg/mL
- MIC (A. calcoaceticus; A. calcoaceticus strain AC002): 4 µg/mL
- MIC (S. marcescens; S. marcescens strain SMS003): >128 µg/mL
- MIC (E. cloacae; E. cloacae strain ECL007): >128 µg/mL
- MIC (S. aureus; S. aureus strain SA014): 64 µg/mL
- MIC (S. maltophilia; S. maltophilia strain SMA002): >128 µg/mL
- MIC (K. pneumoniae; K. pneumoniae strain KP001): >128 µg/mL
- MIC (P. aeruginosa; P. aeruginosa strain PA004): >128 µg/mL
- MIC (E. faecalis; E. faecalis strain EFS008): >128 µg/mL
- MIC (S. epidermidis; S. epidermidis strain SE010): 32 µg/mL

Sequence: ILKKWPNNPNRRK [MBI 11CNW1]
- MIC (E. coli; E. coli ECO005): 32 µg/mL
- MIC (A. calcoaceticus; A. calcoaceticus AC002): 8 µg/mL
- MIC (S. marcescens; S. marcescens SMS003): >128 µg/mL
- MIC (E. cloacae; E. cloacae ECL007): 64 µg/mL
- MIC (S. aureus; S. aureus SA010): 4 µg/mL
- MIC (S. maltophilia; S. maltophilia SMA002): 32 µg/mL
- MIC (K. pneumoniae; K. pneumoniae KP001): 32 µg/mL
- MIC (P. aeruginosa; P. aeruginosa PA004): 64 µg/mL
- MIC (E. faecalis; E. faecalis EFS001): 8 µg/mL

Sequence: ILKKWPWWPWRRK [MBI 11ACN]
- MIC (E. coli; E. coli ECO005): 16 µg/mL
- MIC (A. calcoaceticus; A. calcoaceticus AC002): 2 µg/mL
- MIC (S. marcescens; S. marcescens SMS003): >128 µg/mL
- MIC (E. cloacae; E. cloacae ECL007): >128 µg/mL
- MIC (S. aureus; S. aureus SA014): 8 µg/mL
- MIC (S. maltophilia; S. maltophilia SMA002): 64 µg/mL
- MIC (K. pneumoniae; K. pneumoniae KP001): 16 µg/mL
- MIC (P. aeruginosa; P. aeruginosa PA004): >128 µg/mL
- MIC (E. faecalis; E. faecalis EFS004): 8 µg/mL
- MIC (E. faecalis; E. faecalis EFS008): 64 µg/mL
- MIC (S. epidermidis; S. epidermidis SE010): 4 µg/mL

Sequence: ILPWKWPWWPWRR [MBI 10]
- MIC (E. coli; E. coli ECO002): 128 µg/mL
- MIC (A. calcoaceticus; A. calcoaceticus AC001): 128 µg/mL
- MIC (S. marcescens; S. marcescens SMS003): >128 µg/mL
- MIC (S. aureus; S. aureus SA007): 2 µg/mL
- MIC (S. maltophilia; S. maltophilia SMA001): 128 µg/mL
- MIC (K. pneumoniae; K. pneumoniae KP001): 128 µg/mL
- MIC (P. aeruginosa; P. aeruginosa PA003): >128 µg/mL
- MIC (E. faecalis; E. faecalis EFS004): 8 µg/mL

Sequence: ILRAPWWPWRRK [MBI 11H04CN]
- MIC (E. coli; E. coli ECO005): 32 µg/mL
- MIC (A. calcoaceticus; A. calcoaceticus AC002): 8 µg/mL
- MIC (S. marcescens; S. marcescens SMS003): >128 µg/mL
- MIC (E. cloacae; E. cloacae ECL007): >128 µg/mL
- MIC (S. aureus; S. aureus SA014): 4 µg/mL
- MIC (S. aureus; S. aureus SA093): 2 µg/mL
- MIC (S. maltophilia; S. maltophilia SMA002): >128 µg/mL
- MIC (K. pneumoniae; K. pneumoniae KP001): 64 µg/mL
- MIC (P. aeruginosa; P. aeruginosa PA004): >128 µg/mL
- MIC (E. faecalis; E. faecalis EFS001): 2 µg/mL
- MIC (E. faecalis; E. faecalis EFS008): 8 µg/mL
- MIC (S. epidermidis; S. epidermidis SE010): 16 µg/mL

Sequence: ILRNPNNPNRRK [MBI 11B7CNF12]
- MIC (E. coli; E. coli strain ECO005): 16 µg/mL
- MIC (A. calcoaceticus; A. calcoaceticus strain AC002): 4 µg/mL
- MIC (S. marcescens; S. marcescens strain SMS003): >128 µg/mL
- MIC (S. maltophilia; S. maltophilia strain SMA002): 64 µg/mL
- MIC (K. pneumoniae; K. pneumoniae strain KP001): 16 µg/mL
- MIC (P. aeruginosa; P. aeruginosa strain PA004): >128 µg/mL
- MIC (E. faecalis; E. faecalis strain EFS001): 2 µg/mL

Sequence: KWKLFIKKLTPAVKKVLLTGLPALIS [MBI 29F1]
- Peptide MIC + Amikacin ([1]; A. baumannii): 2 µg/mL
- Peptide MIC Alone ([1]; A. baumannii, Amikacin section): 8 µg/mL
- Peptide MIC + Amikacin ([1]; S. maltophilia): 2 µg/mL
- FIC ([1]; peptide + Amikacin, A. baumannii): 0.75
- Amikacin MIC + Peptide ([2]; E. faecalis EFS008): 4 µg/mL
- Peptide MIC + Amikacin ([2]; E. faecalis EFS008): 0.5 µg/mL
- Peptide MIC Alone ([2]; E. faecalis EFS008): 4 µg/mL
- Amikacin MIC + Peptide ([2]; E. faecium EFM004): 8 µg/mL
- Peptide MIC + Amikacin ([2]; E. faecium EFM004): 16 µg/mL
- Peptide MIC Alone ([2]; E. faecium EFM004): 32 µg/mL
- FIC ([2]; E. faecalis EFS008): 0.19
- FIC ([2]; E. faecium EFM004): 0.53
- Gentamicin MIC + Peptide ([3]; A. calcoaceticus AC001): 2 µg/mL
- Peptide MIC + Gentamicin ([3]; A. calcoaceticus AC001): 4 µg/mL
- Peptide MIC Alone ([3]; A. calcoaceticus AC001): 8 µg/mL
- Gentamicin MIC + Peptide ([3]; P. aeruginosa PA023): 0.125 µg/mL
- Peptide MIC + Gentamicin ([3]; P. aeruginosa PA023): 64 µg/mL
- Peptide MIC Alone ([3]; P. aeruginosa PA023): 128 µg/mL
- FIC ([3]; A. calcoaceticus AC001): 0.75
- FIC ([3]; P. aeruginosa PA023): 0.52
- Peptide MIC Alone (bacterial isolates; 1. Amikacin, A. baumannii ABI001): 8 µg/mL
- Peptide MIC Alone (bacterial isolates; 1. Amikacin, A. baumannii ABI003): 4 µg/mL
- Peptide MIC Alone (bacterial isolates; 1. Amikacin, E. coli ECO022): 4 µg/mL
- Peptide MIC Alone (bacterial isolates; 1. Amikacin, E. faecalis EFS008): 4 µg/mL
- Peptide MIC Alone (bacterial isolates; 1. Amikacin, E. faecium EFM004): 32 µg/mL
- Peptide MIC Alone (bacterial isolates; 1. Amikacin, P. aeruginosa PA022): 4 µg/mL
- Peptide MIC Alone (bacterial isolates; 1. Amikacin, S. aureus SA014 MRSA): 4 µg/mL
- Peptide MIC Alone (bacterial isolates; 1. Amikacin, S. epidermidis SE002): 32 µg/mL
- Peptide MIC Alone (bacterial isolates; 1. Amikacin, S. epidermidis SE003): 32 µg/mL
- Peptide MIC Alone (bacterial isolates; 1. Amikacin, S. maltophilia SMA021): 8 µg/mL
- Peptide MIC Alone (bacterial isolates; 1. Amikacin, S. maltophilia SMA022): 16 µg/mL
- Peptide MIC Alone (bacterial isolates; 4. Gentamicin, P. aeruginosa PA023): 128 µg/mL
- Peptide MIC Alone (bacterial isolates; 4. Gentamicin, S. maltophilia SMA016): 32 µg/mL
- Peptide MIC Alone (bacterial isolates; 4. Gentamicin, S. maltophilia SMA017): 4 µg/mL
- Amikacin MIC + Peptide (bacterial isolates; A. baumannii ABI001): 0.25 µg/mL
- Peptide MIC + Amikacin (bacterial isolates; A. baumannii ABI001): 4 µg/mL
- Amikacin MIC + Peptide (bacterial isolates; A. baumannii ABI003): 2 µg/mL
- Peptide MIC + Amikacin (bacterial isolates; A. baumannii ABI003): 2 µg/mL
- Peptide MIC + Amikacin (bacterial isolates; E. coli ECO022): 2 µg/mL
- Amikacin MIC + Peptide (bacterial isolates; E. faecalis EFS008): 16 µg/mL
- Peptide MIC + Amikacin (bacterial isolates; E. faecalis EFS008): 0.125 µg/mL
- Amikacin MIC + Peptide (bacterial isolates; E. faecium EFM004): 32 µg/mL
- Peptide MIC + Amikacin (bacterial isolates; E. faecium EFM004): 8 µg/mL
- Amikacin MIC + Peptide (bacterial isolates; P. aeruginosa PA022): 64 µg/mL
- Peptide MIC + Amikacin (bacterial isolates; P. aeruginosa PA022): 0.125 µg/mL
- Gentamicin MIC + Peptide (bacterial isolates; P. aeruginosa PA023): 0.125 µg/mL
- Peptide MIC + Gentamicin (bacterial isolates; P. aeruginosa PA023): 64 µg/mL
- Amikacin MIC + Peptide (bacterial isolates; S. aureus SA014 MRSA): 16 µg/mL
- Peptide MIC + Amikacin (bacterial isolates; S. aureus SA014 MRSA): 0.125 µg/mL
- Amikacin MIC + Peptide (bacterial isolates; S. epidermidis SE002): 16 µg/mL
- Peptide MIC + Amikacin (bacterial isolates; S. epidermidis SE002): 4 µg/mL
- Amikacin MIC + Peptide (bacterial isolates; S. epidermidis SE003): 16 µg/mL
- Peptide MIC + Amikacin (bacterial isolates; S. epidermidis SE003): 8 µg/mL
- Gentamicin MIC + Peptide (bacterial isolates; S. maltophilia SMA016): 16 µg/mL
- Peptide MIC + Gentamicin (bacterial isolates; S. maltophilia SMA016): 16 µg/mL
- Gentamicin MIC + Peptide (bacterial isolates; S. maltophilia SMA017): 32 µg/mL
- Peptide MIC + Gentamicin (bacterial isolates; S. maltophilia SMA017): 0.125 µg/mL
- Amikacin MIC + Peptide (bacterial isolates; S. maltophilia SMA021): 8 µg/mL
- Peptide MIC + Amikacin (bacterial isolates; S. maltophilia SMA021): 2 µg/mL
- Amikacin MIC + Peptide (bacterial isolates; S. maltophilia SMA022): 16 µg/mL
- Peptide MIC + Amikacin (bacterial isolates; S. maltophilia SMA022): 4 µg/mL
- FIC (bacterial isolates; peptide + Amikacin, A. baumannii ABI001): 0.51
- FIC (bacterial isolates; peptide + Amikacin, A. baumannii ABI003): 0.63
- FIC (bacterial isolates; peptide + Amikacin, E. coli ECO022): 0.51
- FIC (bacterial isolates; peptide + Amikacin, E. faecalis EFS008): 0.28
- FIC (bacterial isolates; peptide + Amikacin, E. faecium EFM004): 0.38
- FIC (bacterial isolates; peptide + Amikacin, P. aeruginosa PA022): 0.53
- FIC (bacterial isolates; peptide + Amikacin, S. aureus SA014 MRSA): 0.53
- FIC (bacterial isolates; peptide + Amikacin, S. epidermidis SE002): 0.38
- FIC (bacterial isolates; peptide + Amikacin, S. epidermidis SE003): 0.50
- FIC (bacterial isolates; peptide + Amikacin, S. maltophilia SMA021): 0.31
- FIC (bacterial isolates; peptide + Amikacin, S. maltophilia SMA022): 0.31
- FIC (bacterial isolates; peptide + Gentamicin, P. aeruginosa PA023): 0.52
- FIC (bacterial isolates; peptide + Gentamicin, S. maltophilia SMA016): 0.56
- FIC (bacterial isolates; peptide + Gentamicin, S. maltophilia SMA017): 0.53
